A short description of data set [1]: Pharmacokinetic evaluation following intravenous and oral administration in rats (oral bioavailability). The note with it: male Sprague-Dawley rats, PO 1 to 5 mg/kg vs IV 1 mg/kg, AUCinf dose-normalized. The format is in vivo, rat. The procedure:
Male Sprague-Dawley rats are acclimatized for at least 24 hours prior to experiment initiation. During acclimation period, all animals receive food and water ad libitum. However, food but not water is removed from the animal's cages at least 12 hours before initiation of the experiment. During the first 3 hours of experimentation, the animals receive only water ad libitum. At least three animals each are tested for intravenous and oral dosage. For intravenous formulation, compounds were dissolved (0.25 to 1 mg/mL) in a mixture of 3% dimethyl sulfoxide, 40% PEG 400 and the rest percentage of 40% Captisol in water (w/v). The animals are weighed before dosing. The determined body weight is used to calculate the dose volume for each animal.
Dose volume (mL/kg)=1 mg/kg/formulation concentration (mg/mL)
In instances where the formulation concentrations were less than 0.5 mg/mL, the dosing volume is about 2 mL/kg.
PO rats are typically dosed through oral gavage following the same dose volume formula as IV to achieve a dose level of 1 to 5 mg/kg. […] About 250 uL of blood is obtained at each time point from the animal. Equal volumes of 0.9% normal saline are replaced to prevent dehydration. The whole blood samples are maintained on ice until centrifugation. Blood samples are then centrifuged at 14,000 rpm for 10 minutes at 4° C. and the upper plasma layer transferred into a clean vial and stored at −80° C. The resulting plasma samples are then analyzed by liquid chromatography-tandem mass spectrometry. Following the measurement of plasma samples and dosing solutions, plasma concentration-time curve is plotted. Plasma exposure is calculated as the area under the concentration-time curve extrapolated to time infinite (AUinf). The AUCinf is averaged and the oral bioavailability (% F) for individual animal is calculated as:
AUCinf (PO)/AUCinf (IV), normalized to their respective dose levels. The % F is reported as the mean % F of all animals dosed orally with the compound of the invention at the specified level (see Table 4 below).
For the purpose of Table 4, oral bioavailability of each compound is expressed as follows: […]

The nature of data set [2]: Determination of aqueous (kinetic) solubility. The format is physicochemical. The conditions noted are these: aqueous buffer, kinetic from dmso stock, buffer pH 7.4. The method, then:
The mixture was vortexed for 1 hour and equilibrated overnight at room temperature. The mixture was filtered through a saturated filter and the filtrate was analyzed by LC/MS/MS.
For the purpose of Table 5, solubility of each compound is expressed as follows: […]

Data set [3] addresses T1, P2X7 receptor (Homo sapiens, UniProt Q99572).
T1 construct: host or cells: THP-1 cells differentiated with LPS and IFN-γ
T1 sequence (Q99572 1-595): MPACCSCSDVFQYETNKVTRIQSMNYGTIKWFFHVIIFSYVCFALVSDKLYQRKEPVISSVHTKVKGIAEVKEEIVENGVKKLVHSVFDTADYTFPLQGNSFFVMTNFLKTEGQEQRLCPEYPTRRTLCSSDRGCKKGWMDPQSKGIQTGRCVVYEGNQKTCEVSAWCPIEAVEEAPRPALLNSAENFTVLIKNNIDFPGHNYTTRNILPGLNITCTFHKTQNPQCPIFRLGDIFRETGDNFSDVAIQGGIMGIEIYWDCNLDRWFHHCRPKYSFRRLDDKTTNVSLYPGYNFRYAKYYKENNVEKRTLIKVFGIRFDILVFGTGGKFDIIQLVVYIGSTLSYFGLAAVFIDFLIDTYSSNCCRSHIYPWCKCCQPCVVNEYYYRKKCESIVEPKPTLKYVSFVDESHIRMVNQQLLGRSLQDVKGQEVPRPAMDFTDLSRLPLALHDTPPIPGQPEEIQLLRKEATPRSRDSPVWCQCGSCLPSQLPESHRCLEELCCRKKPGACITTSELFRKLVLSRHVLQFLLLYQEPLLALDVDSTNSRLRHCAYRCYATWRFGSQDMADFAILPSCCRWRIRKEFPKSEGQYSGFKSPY
Description: IL-1β release assay in differentiated THP-1 cells stimulated with BzATP (Example 9). The format is cell-based. The procedure, abridged:
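THP-1 cells differentiated 16 h with 100 ng/mL LPS and 100 ng/mL IFN-γ, primed 2 h with fresh LPS, pretreated 30 min with compound, then stimulated 45 min with 250 uM BzATP (final). Supernatant IL-1β measured by ELISA; background-adjusted percent inhibition fitted to a four-parameter logistic for IC50.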

Data set [4] can be described thus: Half-life in human liver microsomes (HLM). The conditions noted are these: pH 7.4. Background: Microsomes from liver hold many membrane-bound enzymes, among them those of drug oxidation.
Description: Test compounds (1 μM) are incubated with 3.3 mM MgCl2 and 0.78 mg/mL HLM (HL101) in 100 mM potassium phosphate buffer (pH 7.4) at 37° C. on the 96-deep well plate. The reaction mixture is split into two groups, a non-P450 and a P450 group. NADPH is only added to the reaction mixture of the P450 group. An aliquot of samples of P450 group is collected at 0, 10, 30, and 60 min time point, where 0 min time point indicated the time when NADPH is added into the reaction mixture of P450 group. […] Collected aliquots are extracted with acetonitrile solution containing an internal standard. […] The compound concentration in supernatant is measured by LC/MS/MS system.
The half-life value is obtained by plotting the natural logarithm of the peak area ratio of compounds/internal standard versus time. The slope of the line of best fit through the points yields the rate of metabolism (k). This is converted to a half-life value using following equations:
The mark [5] stands for this setting: 0.3 μM compound, differentiated THP-1 cells, BzATP 250 uM, "+" symbols, read-out: IL-1β % Inhib. @ 0.3 or 0.1 uM.
The mark [6] stands for this setting: 0.3 μM compound (symbols +), differentiated THP-1 cells, BzATP 250 uM, read-out: IL-1β % Inhib. @ 0.3 or 0.1 uM.
Setting [7] is: THP-1, read-out: IL-1β % Inhib. @ 0.3 or 0.1 uM.

≈ marks a conversion by molar mass, not a printed value. Read-outs that look alike come from different tables or passages of the source.

Usually solubility stands for how much of the substance goes into solution per volume. Lower therefore signals a poorly soluble substance. The half-life is how long it takes for the measured level to halve. A high value points to slow loss. With `C[C@H](C(N)=O)n1ccc2c(NC(=O)[C@H](C)c3ccc(Cl)c(Cl)c3)cccc2c1=O` [Compound 269], the “Oral Bioavailability F (%)” value in data set [1] was “++ (26-50% F)”. In data set [2], the solubility is 26 to 50 µM (≈ 11.2 to 21.6 µg/mL). In addition, the inhibition at 0.3 µM in data set [3] (setting [5]) was > 76%. Also, the half-life at 1 μM in data set [4] was 0.93 h.
As for `O=C(CCc1cc(C(F)(F)F)ccc1C(F)(F)F)Nc1cccc2c(=O)n(CCO)ccc12` [Compound 62], the “Oral Bioavailability F (%)” value in data set [1] is on record as “+ (0-25% F)”. For the same molecule, in data set [2], the solubility was < 25 µM. Besides, the inhibition at 0.3 µM in data set [3] (setting [6]) was > 76%. This molecule showed a half-life at 1 μM in data set [4] of 0.37 h.
On the same counts, the results for `O=C(Cc1ccc(Cl)c(C(F)(F)F)c1)Nc1cccc2c(=O)n(C(CO)CO)ccc12` [Compound 81, 2-(4-Chloro-3-trifluoromethyl-phenyl)-N-[2-(2-hydroxy-1-hydroxymethyl-ethyl)-1-oxo-1,2-dihydro-isoquinolin-5-yl]-acetamide] are “+ (0-25% F)”, > 75 µM, > 76% and 0.72 h.
As for `CC(C(=O)Nc1cccc2c(=O)n([C@H](C)C(N)=O)ccc12)c1ccc(Cl)c(Cl)c1` (stereo partly shown) [Compound 254], the “Oral Bioavailability F (%)” value in data set [1] is given as “+ (0-25% F)”. In data set [2], the solubility was 26 to 50 µM (≈ 11.2 to 21.6 µg/mL). The inhibition at 0.3 µM in data set [3] (setting [5]) is > 76%. For the same molecule, the half-life at 1 μM in data set [4] was 1.46 h.
Turning to `C[C@H](C(N)=O)n1ccc2c(NC(=O)Cc3ccc(Cl)cc3)cccc2c1=O` [Compound 256], the “Oral Bioavailability F (%)” value in data set [1] is “+ (0-25% F)”. For the same molecule, the solubility in data set [2] is < 25 µM. Also, the inhibition at 0.3 µM in data set [3] (setting [5]) was > 76%. The molecule further showed a half-life at 1 μM in data set [4] of 1.29 h.
For `C[C@H](CO)n1ccc2c(NC(=O)Cc3cccc(C(F)(F)F)c3F)cccc2c1=O` [Compound 324] the same measures were “++ (26-50% F)”, > 75 µM, > 76% and 0.7 h.
On to `C[C@H](C(N)=O)n1ccc2c(NC(=O)Cc3ccc(C(F)(F)F)cc3)c(Cl)ccc2c1=O` [Compound 316, (R)-2-{6-Chloro-1-oxo-5-[2-(4-trifluoromethyl-phenyl)-acetylamino]-1H-isoquinolin-2-yl}-propionamide], for which the “Oral Bioavailability F (%)” value in data set [1] is given as “++ (26-50% F)”. In data set [2], the solubility was < 25 µM. Further, in data set [3] (setting [7]), the inhibition at 0.3 µM is > 76%. For the same molecule, in data set [4], the half-life at 1 μM was 3.25 h.
For `C[C@H](CO)n1ccc2c(NC(=O)Cc3ccc(F)c(C(F)(F)F)c3)c(Cl)ccc2c1=O` [Compound 377, N-[6-Chloro-2-((R)-2-hydroxy-1-methyl-ethyl)-1-oxo-1,2-dihydro-isoquinolin-5-yl]-2-(4-fluoro-3-trifluoromethyl-phenyl)-acetamide] the same measures were “+++ (51-75% F)”, > 75 µM, > 76% and 1.01 h.
In the case of `C[C@H](C(N)=O)n1ccc2c(NC(=O)Cc3ccc(C(F)(F)F)cc3)cccc2c1=O` [Compound 298], in data set [1], the “Oral Bioavailability F (%)” value was “+ (0-25% F)”. In data set [2], the solubility was < 25 µM. Further, the inhibition at 0.3 µM in data set [3] (setting [5]) is > 76%. This molecule also gave a half-life at 1 μM in data set [4] of 3.35 h.
For `C[C@H](CO)n1ccc2c(NC(=O)Cc3ccc(C(F)(F)F)c(F)c3)c(Cl)ccc2c1=O` [Compound 375, N-[6-Chloro-2-((R)-2-hydroxy-1-methyl-ethyl)-1-oxo-1,2-dihydro-isoquinolin-5-yl]-2-(3-fluoro-4-trifluoromethyl-phenyl)-acetamide] the same measures were “++++ (>75% F)”, > 75 µM, > 76% and 1.63 h.
For `C[C@H](CO)n1ccc2c(NC(=O)Cc3ccc(F)c(C(F)(F)F)c3)cccc2c1=O` [Compound 339] the same measures were “+++ (51-75% F)”, > 75 µM, > 76% and 0.93 h.
On the same counts, the results for `C[C@H](CO)n1ccc2c(NC(=O)Cc3ccc(C(F)(F)F)c(F)c3)cccc2c1=O` [Compound 335] are “++ (26-50% F)”, > 75 µM, > 76% and 0.93 h.
In the case of `O=C(Cc1ccc(C(F)(F)F)c(F)c1)Nc1cccc2c(=O)n(CCO)ccc12` [Compound 357], the “Oral Bioavailability F (%)” value in data set [1] is given as “++++ (>75% F)”. The solubility in data set [2] is < 25 µM. The inhibition at 0.3 µM in data set [3] (setting [5]) is > 76%. Further, in data set [4], the half-life at 1 μM was 1.54 h.
Consider `C[C@H](CO)n1ccc2c(NC(=O)Cc3ccc(Cl)c(Cl)c3)c(Cl)ccc2c1=O` [Compound 376], for which the “Oral Bioavailability F (%)” value in data set [1] was “++ (26-50% F)”. The solubility in data set [2] is > 75 µM. Also, the inhibition at 0.3 µM in data set [3] (setting [5]) was > 76%. The molecule also had a half-life at 1 μM in data set [4] of 0.9 h.
On to `C[C@H](C(=O)Nc1cccc2c(=O)n([C@H](C)C(N)=O)ccc12)c1ccc(Cl)cc1` [Compound 263], for which the “Oral Bioavailability F (%)” value in data set [1] is on record as “++ (26-50% F)”. For the same molecule, the solubility in data set [2] is > 75 µM. The inhibition at 0.3 µM in data set [3] (setting [5]) is > 76%. For the same molecule, in data set [4], the half-life at 1 μM was 2.31 h.
On the same counts, the results for `C[C@H](CO)n1ccc2c(NC(=O)Cc3ccc(C(F)(F)F)cc3F)cccc2c1=O` [Compound 359] are “++++ (>75% F)”, < 25 µM, > 76% and 1.16 h.
For `CC(C(=O)Nc1cccc2c(=O)n([C@H](C)C(N)=O)ccc12)c1ccc(Cl)c(C(F)(F)F)c1` (stereo partly drawn) [Compound 267, (R)-2-{5-[2-(4-Chloro-3-trifluoromethyl-phenyl)-propionylamino]-1-oxo-1H-isoquinolin-2-yl}-propionamide] the same measures were “++ (26-50% F)”, 51 to 75 µM (≈ 23.8 to 34.9 µg/mL), > 76% and 1.28 h.
For `C[C@H](C(=O)Nc1cccc2c(=O)n([C@H](C)C(N)=O)ccc12)c1ccc(Cl)c(Cl)c1` [Compound 268] the same measures were “++ (26-50% F)”, 51 to 75 µM (≈ 22 to 32.4 µg/mL), > 76% and 1.36 h.
Consider `C[C@@H](C(N)=O)n1ccc2c(NC(=O)Cc3ccc(C(F)(F)F)cc3)cccc2c1=O` [Compound 351], for which, in data set [1], the “Oral Bioavailability F (%)” value is reported as “+ (0-25% F)”. The solubility in data set [2] was < 25 µM. For the same molecule, in data set [3] (setting [5]), the inhibition at 0.3 µM was > 76%. In addition, in data set [4], the half-life at 1 μM was 2.36 h.
With `C[C@H](C(N)=O)n1ccc2c(NC(=O)Cc3ccc(Cl)cc3F)cccc2c1=O` [Compound 290], in data set [1], the “Oral Bioavailability F (%)” value is given as “+ (0-25% F)”. For the same molecule, in data set [3] (setting [5]), the inhibition at 0.3 µM was > 76%. In addition, the half-life at 1 μM in data set [4] was 1.64 h.
For `C[C@H](CO)n1ccc2c(NC(=O)Cc3ccc(Cl)c(F)c3)c(Cl)ccc2c1=O` [Compound 382] the same measures were “+++ (51-75% F)”, > 76% and 1.34 h.

For the origin of these results see patent US20110092476A1, “Bicycloheteroaryl compounds as P2X7 modulators and uses thereof” (Renovis, Inc., priority 2006, published 2011).
